Laboratory results from publication PMC6934184, “Selective DNA-PKcs inhibition extends the therapeutic index of localized radiotherapy and chemotherapy” (The Journal of Clinical Investigation, 2019).

Target: T1, MAP4K3 (GLK) (Homo sapiens, UniProt Q8IVH8)
T1 construct: purchased Thermo Fisher Scientific (Life Technologies) SelectScreen
Experiment: SelectScreen LanthaScreen
Format: binding
Settings: 1 µM
Procedure, shortened: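 SelectScreen broad panel; activity (Z'LYTE, Adapta) plus binding formats. ATP: Km app for CSF1R Z'LYTE; 10 for CAMK1 Adapta. Readout = % per kinase.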

T1 sequence (Q8IVH8 whole entry): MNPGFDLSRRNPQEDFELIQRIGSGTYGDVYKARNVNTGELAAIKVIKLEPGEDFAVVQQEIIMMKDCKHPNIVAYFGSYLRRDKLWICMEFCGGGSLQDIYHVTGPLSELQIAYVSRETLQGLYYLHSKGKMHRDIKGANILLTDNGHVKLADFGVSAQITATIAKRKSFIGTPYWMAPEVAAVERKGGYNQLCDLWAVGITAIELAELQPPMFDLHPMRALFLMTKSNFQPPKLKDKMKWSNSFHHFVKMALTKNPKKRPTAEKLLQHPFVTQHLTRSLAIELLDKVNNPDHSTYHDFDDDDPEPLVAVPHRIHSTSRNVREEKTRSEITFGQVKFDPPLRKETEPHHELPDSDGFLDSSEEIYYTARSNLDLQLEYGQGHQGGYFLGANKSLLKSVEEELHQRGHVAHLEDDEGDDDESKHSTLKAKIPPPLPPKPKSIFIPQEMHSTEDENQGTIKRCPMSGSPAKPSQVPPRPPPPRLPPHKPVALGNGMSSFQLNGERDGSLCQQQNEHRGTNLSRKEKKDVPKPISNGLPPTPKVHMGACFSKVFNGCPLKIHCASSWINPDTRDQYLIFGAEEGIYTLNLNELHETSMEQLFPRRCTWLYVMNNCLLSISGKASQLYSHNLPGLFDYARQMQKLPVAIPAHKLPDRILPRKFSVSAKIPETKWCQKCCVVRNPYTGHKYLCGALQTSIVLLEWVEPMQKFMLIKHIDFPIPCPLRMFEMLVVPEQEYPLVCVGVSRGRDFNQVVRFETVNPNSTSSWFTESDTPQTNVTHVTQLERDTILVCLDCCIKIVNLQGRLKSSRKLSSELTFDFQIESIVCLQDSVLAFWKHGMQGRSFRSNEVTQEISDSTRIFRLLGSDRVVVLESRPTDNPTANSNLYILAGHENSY

Question: Which “% displacement” value does the source give for `CN(C(=O)CN1CCOCC1)c1ccc2sc3c(-c4cccc5c(=O)cc(N6CC7CCC(C6)O7)oc45)cccc3c2c1` [NU5455] here?
Answer: Its value is -2.1%.
